How the values were obtained:
Test in all cases: Test B pre-/postemergence
Format in all cases: in vivo
Design in all cases: key: 0 is no effect; 10 is complete control
[1] = system: blackgrass (Alopecurus myosuroides)
Outline: (§1)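 Response scores run from 0, meaning no effect, to 10, meaning complete control, assigned by eye relative to controls twelve to sixteen days after spraying. Treatment was both preemergence on planted seed and postemergence on plants at the 1- to 4-leaf stage.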

[2] = system: broadleaf signalgrass (Brachiaria decumbens)
Outline: as §1

[3] = system: cocklebur (Xanthium strumarium)
Outline: as §1

corn (Zea mays) = system: corn (Zea mays)
Outline: as §1

[4] = system: crabgrass (Digitaria sanguinalis)
Outline: as §1

[5] = system: giant foxtail (Setaria faberii)
Outline: as §1

[6] = system: momingglory (Ipomoea hederacea)
Outline: as §1

[7] = system: pigweed (Amaranthus retroflexus)
Outline: as §1

[8] = system: purple nutsedge (Cyperus rotundus)
Outline: as §1

soybean (Glycine max) = system: soybean (Glycine max)
Outline: as §1

[9] = system: sugar beet (Beta vulgaris)
Outline: as §1

[10] = system: velvetleaf (Abutilon theophrasti)
Outline: as §1

[11] = system: wheat (Triticum aestivum)
Outline: as §1

wild oat (Avena fatua) = system: wild oat (Avena fatua)
Outline: as §1

[12] = Preemergence, Rate 62 g/ha, scale of 0 to 10

## Cc1cnc(-n2ccc(C(F)(F)F)n2)nc1C(=O)c1cccc(OC(F)(F)F)c1 [Compound 66]
[1]; [12]
  Plant response rating, Blackgrass: 3
[1]; Rate 62 g/ha, Postemergence
  Blackgrass plant response rating: 2
[1]; Rate 125 g/ha, Postemergence
  Blackgrass plant response rating: 3
[1]; Rate 125 g/ha, Preemergence
  Plant response rating, Blackgrass: 3
[1]; Rate 250 g/ha, Postemergence
  Plant response rating, Blackgrass: 5
[1]; Rate 250 g/ha, Preemergence
  Plant response rating, Blackgrass: 8
[1]; Rate 500 g/ha, Postemergence
  Plant response rating, Blackgrass: 6
[1]; Rate 500 g/ha, Preemergence
  Plant response rating, Blackgrass: 10
[2]; Rate 62 g/ha, Postemergence
  B. signalgrass plant response rating: 2
[2]; Rate 62 g/ha, Preemergence
  B. signalgrass plant response rating: 9
[2]; Rate 125 g/ha, Postemergence
  B. signalgrass plant response rating: 3
[2]; Rate 125 g/ha, Preemergence
  Plant response rating, B. signalgrass: 9
[2]; Rate 250 g/ha, Postemergence
  Plant response rating, B. signalgrass: 4
[2]; Rate 250 g/ha, Preemergence
  Plant response rating, B. signalgrass: 9
[2]; Rate 500 g/ha, Postemergence
  Plant response rating, B. signalgrass: 5
[2]; Rate 500 g/ha, Preemergence
  Plant response rating, B. signalgrass: 10
[3]; [12]
  Plant response rating, Cocklebur: 0
[3]; Rate 62 g/ha, Postemergence
  Cocklebur plant response rating: 3
[3]; Rate 125 g/ha, Postemergence
  Cocklebur plant response rating: 4
[3]; Rate 125 g/ha, Preemergence
  Plant response rating, Cocklebur: 0
[3]; Rate 250 g/ha, Postemergence
  Plant response rating, Cocklebur: 4
[3]; Rate 250 g/ha, Preemergence
  Plant response rating, Cocklebur: 0
[3]; Rate 500 g/ha, Postemergence
  Plant response rating, Cocklebur: 5
[3]; Rate 500 g/ha, Preemergence
  Plant response rating, Cocklebur: 3
Corn (Zea mays); [12]
  Plant response rating, Corn: 0
Corn (Zea mays); Rate 62 g/ha, Postemergence
  Corn plant response rating: 1
Corn (Zea mays); Rate 125 g/ha, Postemergence
  Corn plant response rating: 2
Corn (Zea mays); Rate 125 g/ha, Preemergence
  Plant response rating, Corn: 1
Corn (Zea mays); Rate 250 g/ha, Postemergence
  Plant response rating, Corn: 2
Corn (Zea mays); Rate 250 g/ha, Preemergence
  Plant response rating, Corn: 1
Corn (Zea mays); Rate 500 g/ha, Postemergence
  Plant response rating, Corn: 3
Corn (Zea mays); Rate 500 g/ha, Preemergence
  Plant response rating, Corn: 3
[4]; [12]
  Plant response rating, Crabgrass: 6
[4]; Rate 62 g/ha, Postemergence
  Crabgrass plant response rating: 2
[4]; Rate 125 g/ha, Postemergence
  Crabgrass plant response rating: 7
[4]; Rate 125 g/ha, Preemergence
  Plant response rating, Crabgrass: 9
[4]; Rate 250 g/ha, Postemergence
  Plant response rating, Crabgrass: 8
[4]; Rate 250 g/ha, Preemergence
  Plant response rating, Crabgrass: 9
[4]; Rate 500 g/ha, Postemergence
  Plant response rating, Crabgrass: 10
[4]; Rate 500 g/ha, Preemergence
  Plant response rating, Crabgrass: 9
[5]; [12]
  Plant response rating, Giant foxtail: 0
[5]; Rate 62 g/ha, Postemergence
  Giant foxtail plant response rating: 2
[5]; Rate 125 g/ha, Postemergence
  Giant foxtail plant response rating: 2
[5]; Rate 125 g/ha, Preemergence
  Plant response rating, Giant foxtail: 1
[5]; Rate 250 g/ha, Postemergence
  Plant response rating, Giant foxtail: 2
[5]; Rate 250 g/ha, Preemergence
  Plant response rating, Giant foxtail: 2
[5]; Rate 500 g/ha, Postemergence
  Plant response rating, Giant foxtail: 4
[5]; Rate 500 g/ha, Preemergence
  Plant response rating, Giant foxtail: 4
[6]; [12]
  Plant response rating, Morningglory: 2
[6]; Rate 62 g/ha, Postemergence
  Morningglory plant response rating: 2
[6]; Rate 125 g/ha, Postemergence
  Morningglory plant response rating: 4
[6]; Rate 125 g/ha, Preemergence
  Plant response rating, Morningglory: 3
[6]; Rate 250 g/ha, Postemergence
  Plant response rating, Morningglory: 9
[6]; Rate 250 g/ha, Preemergence
  Plant response rating, Morningglory: 3
[6]; Rate 500 g/ha, Postemergence
  Plant response rating, Morningglory: 10
[6]; Rate 500 g/ha, Preemergence
  Plant response rating, Morningglory: 9
[7]; [12]
  Plant response rating, Redroot pigweed: 7
[7]; Rate 62 g/ha, Postemergence
  Redroot pigweed plant response rating: 8
[7]; Rate 125 g/ha, Postemergence
  Redroot pigweed plant response rating: 9
[7]; Rate 125 g/ha, Preemergence
  Plant response rating, Redroot pigweed: 9
[7]; Rate 250 g/ha, Postemergence
  Plant response rating, Redroot pigweed: 10
[7]; Rate 250 g/ha, Preemergence
  Plant response rating, Redroot pigweed: 9
[7]; Rate 500 g/ha, Postemergence
  Plant response rating, Redroot pigweed: 10
[7]; Rate 500 g/ha, Preemergence
  Plant response rating, Redroot pigweed: 10
[8]; [12]
  Plant response rating, Nutsedge: 0
[8]; Rate 62 g/ha, Postemergence
  Nutsedge plant response rating: 0
[8]; Rate 125 g/ha, Postemergence
  Nutsedge plant response rating: 1
[8]; Rate 250 g/ha, Postemergence
  Plant response rating, Nutsedge: 1
[8]; Rate 500 g/ha, Postemergence
  Plant response rating, Nutsedge: 1
[8]; Rate 500 g/ha, Preemergence
  Plant response rating, Nutsedge: 0
Soybean (Glycine max); [12]
  Plant response rating, Soybean: 0
Soybean (Glycine max); Rate 62 g/ha, Postemergence
  Soybean plant response rating: 5
Soybean (Glycine max); Rate 125 g/ha, Postemergence
  Soybean plant response rating: 5
Soybean (Glycine max); Rate 125 g/ha, Preemergence
  Plant response rating, Soybean: 0
Soybean (Glycine max); Rate 250 g/ha, Postemergence
  Plant response rating, Soybean: 6
Soybean (Glycine max); Rate 250 g/ha, Preemergence
  Plant response rating, Soybean: 0
Soybean (Glycine max); Rate 500 g/ha, Postemergence
  Plant response rating, Soybean: 7
Soybean (Glycine max); Rate 500 g/ha, Preemergence
  Plant response rating, Soybean: 1
[9]; [12]
  Plant response rating, Sugarbeets: 9
[9]; Rate 62 g/ha, Postemergence
  Sugarbeets plant response rating: 10
[9]; Rate 125 g/ha, Postemergence
  Sugarbeets plant response rating: 10
[9]; Rate 125 g/ha, Preemergence
  Plant response rating, Sugarbeets: 10
[9]; Rate 250 g/ha, Postemergence
  Plant response rating, Sugarbeets: 10
[9]; Rate 250 g/ha, Preemergence
  Plant response rating, Sugarbeets: 10
[9]; Rate 500 g/ha, Postemergence
  Plant response rating, Sugarbeets: 10
[9]; Rate 500 g/ha, Preemergence
  Plant response rating, Sugarbeets: 10
[10]; [12]
  Plant response rating, Velvetleaf: 1
[10]; Rate 62 g/ha, Postemergence
  Velvetleaf plant response rating: 4
[10]; Rate 125 g/ha, Postemergence
  Velvetleaf plant response rating: 5
[10]; Rate 125 g/ha, Preemergence
  Plant response rating, Velvetleaf: 4
[10]; Rate 250 g/ha, Postemergence
  Plant response rating, Velvetleaf: 6
[10]; Rate 250 g/ha, Preemergence
  Plant response rating, Velvetleaf: 8
[10]; Rate 500 g/ha, Postemergence
  Plant response rating, Velvetleaf: 8
[10]; Rate 500 g/ha, Preemergence
  Plant response rating, Velvetleaf: 8
[11]; [12]
  Plant response rating, Wheat: 0
[11]; Rate 62 g/ha, Postemergence
  Wheat plant response rating: 2
[11]; Rate 125 g/ha, Postemergence
  Wheat plant response rating: 2
[11]; Rate 125 g/ha, Preemergence
  Plant response rating, Wheat: 1
[11]; Rate 250 g/ha, Postemergence
  Plant response rating, Wheat: 2
[11]; Rate 250 g/ha, Preemergence
  Plant response rating, Wheat: 2
[11]; Rate 500 g/ha, Postemergence
  Plant response rating, Wheat: 3
[11]; Rate 500 g/ha, Preemergence
  Plant response rating, Wheat: 3
Wild oat (Avena fatua); [12]
  Plant response rating, Wild oats: 2
Wild oat (Avena fatua); Rate 62 g/ha, Postemergence
  Wild oats plant response rating: 2
Wild oat (Avena fatua); Rate 125 g/ha, Postemergence
  Wild oats plant response rating: 2
Wild oat (Avena fatua); Rate 125 g/ha, Preemergence
  Plant response rating, Wild oats: 4
Wild oat (Avena fatua); Rate 250 g/ha, Postemergence
  Plant response rating, Wild oats: 2
Wild oat (Avena fatua); Rate 250 g/ha, Preemergence
  Plant response rating, Wild oats: 5
Wild oat (Avena fatua); Rate 500 g/ha, Postemergence
  Plant response rating, Wild oats: 3
Wild oat (Avena fatua); Rate 500 g/ha, Preemergence
  Plant response rating, Wild oats: 5
